3 molecules from US20250188480A1, “AGENT FOR ENHANCING PRODUCTION OF VIRAL VECTOR AND METHOD FOR PRODUCING VIRAL VECTOR” (priority 2022, published 2025) can be followed below.

“Also recorded” adds a separate entry of the source.

One test has as its system HEK293 cells. The conditions noted are these: treated for 5 days; HEK293 cells transduced at 1×10^5 v.g./cell, green fluorescence 3 days thereafter, vs vector without treatment.
Test [1] deals with HEK293 cells producing rAAV1. Put plainly: Evaluation of AAV vector-producing ability by treatment with chemical substance (virus titer by qPCR). In kind it is cell-based, human. To be noted: for effects of enhancing the amount of production of AAV vectors (v.g.): HEK293 cells, serum-free E-MEM supplemented with the substance at various concentrations, culture for 3 days, vs untreated control. How it is done:
The cells of the immortalized cell line derived from the human embryonic kidney (HEK293 cells) purchased from ATCC were cultured in E-MEM supplemented with 10% fetal bovine serum, penicillin, and streptomycin at 37° C. in the presence of 5% CO2.
The recombinant adeno-associated virus 1 (rAAV1) was prepared with the use of 3 types of plasmids: pAAV-ZsGreen1 (TaKaRa Bio), pAAV2/1, and pHelper. A mixture of 3 types of plasmids for preparation of rAAV1 was adjusted to bring the mixing ratio of DNA to Polyethylenimine Max (PEI: Polysciences) (DNA: PEI) to 1:2 in OPTI-MEM, and the reaction was allowed to proceed at room temperature for 15 minutes. After 90% or higher confluent HEK293 cells were transfected with E-MEM supplemented with 10% FBS for 6 hours, culture was performed in serum-free E-MEM to prepare the AAV type 1 vector.
Genome DNA of rAAV1 was extracted to measure the virus titer. Specifically, the culture supernatant was collected and treated with benzonase at 37° C. for 1 hour, and the viral genome DNA was extracted and purified using the DNeasy Blood & Tissue kit (QIAGEN). The virus titer was measured by real-time PCR in triplicate. qPCR was performed using primers targeting Zs-Green 1.
The virus titers achieved with the use of the chemical substances were compared with the virus titer of the control cells treated with serum-free E-MEM not supplemented with chemical substances.
Background: Real-time PCR tracks product formation cycle by cycle.

As to `[NH3+][Pt-2]1([NH3+])[O]C(=O)C2(CCC2)C(=O)[O]1` [Carboplatin], in the test with HEK293 cells, the “infectious ability of the rAAV vector produced by treatment” value is “retains the infectious ability equivalent to that of the AAV vector prepared without treatment”. Further, in test [1], the “effects of enhancing the amount of production of AAV vectors (v.g.)” value (“effects” for short) is on record as “has effects of enhancing the amount of production of AAV vectors; also recorded: effects of enhancing production of rAAV vectors can be achieved”. For the same molecule, the “amount of production of AAV vectors (v.g.) with the elapse of time” value in test [1] (time after initiation of vector production, observed for 4 to 7 days) is “increasing with the elapse of time”.
As for `N.N.[Cl][Pt][Cl]` [Cisplatin], in test [1], the “effects” value is “has effects of enhancing the amount of production of AAV vectors; also recorded: effects of enhancing production of rAAV vectors can be achieved”.
Regarding `[NH2][Pt]1([NH2])[O]CC(=O)[O]1` [Nedaplatin], the “effects” value in test [1] is recorded as “has effects of enhancing the amount of production of AAV vectors; also recorded: effects of enhancing production of rAAV vectors can be achieved”.
